Data as given in patent publication US7741325B2, “Benzo[b]chromeno-naphthyridin-7-one and pyrano[2′,3′:7,8]quino[2,3-b]quinoxalin-7-one compounds” (priority 2004, dated 2010).

Key:
[1] = tested on: L1210; experiment: In vitro cytotoxicity, tetrazolium microculture assay, L1210; type: cell-based; conditions: Mus musculus, 48 h; L1210 murine leukaemia, incubated for 2 days; read-out: IC50, the concentration of cytotoxic compound that inhibits the proliferation of the treated cells by 50%
Protocol: (§1) Two cell lines were used: • 1 murine leukaemia, L1210, • 1 human epidermoid carcinoma: KB-3-1
(§2) The cells are cultured in RPMI 1640 complete culture medium comprising 10% fcetal calf serum, 2 mM glutamine, 50 units/ml of penicillin, 50 μg/ml of streptomycin and 10 mM Hepes, pH 7.4. The cells are distributed on microplates and are exposed to the cytotoxic compounds. The cells are then incubated for 2 days (L1210) or 4 days (KB-3-1) in an incubator at 37° C. in the presence of 5% CO2. The number of viable cells is then quantified by a colorimetric assay, the tetrazolium microculture assay (Cancer Res. 1987, 47, 939-942).
(§3) The results are expressed as IC50, the concentration of cytotoxic compound that inhibits the proliferation of the treated cells by 50%.

[2] = tested on: KB-3-1; experiment: In vitro cytotoxicity, tetrazolium microculture assay, KB-3-1; type: cell-based; conditions: 96 h; KB-3-1 human epidermoid carcinoma, incubated for 4 days; read-out: IC50, the concentration of cytotoxic compound that inhibits the proliferation of the treated cells by 50%
Protocol: as §1, §2, §3

| SMILES | melting point | IC50 [1] | IC50 [2] |
| --- | --- | --- | --- |
| COc1cc2c(c3c1c(=O)c1cc4ccccc4nc1n3C)[C@@H](OC(C)=O)[C@@H](OC(C)=O)C(C)(C)O2 (racemic) [Example 4, (±)-cis-1,2-Diacetoxy-6methoxy-3,3,14-trimethyl-1,2,3,14-tetrahydro-7H-benzo[b]chromeno[6,5-g][1,8]naphthyridin-7-one] | 244 °C | 320 nM | 37 nM |
| COc1cc2c(c3c1c(=O)c1cc4ccccc4nc1n3C)[C@H]1OC(=O)O[C@H]1C(C)(C)O2 (racemic) [Example 5, (±)-cis-7-Methoxy-4,4,15-trimethyl-15,15c-dihydro-4H-benzo[b][1,3]-dioxolo[4′,5′:3,4]chromeno[6,5-g][1,8]naphthyridin-2,8[3aH]-dione] | 234 °C | – | – |

Further lines, with some results ahead:

| melting point | SMILES | IC50 [1] | IC50 [2] |
| --- | --- | --- | --- |
| 298 °C | COc1cc2c(c3c1c(=O)c1cc4ccccc4nc1n3C)[C@@H](O)[C@@H](O)C(C)(C)O2 (racemic) [Example 3, (±)-cis-1,2-Dihydroxy-6-methoxy-3,3,14-trimethyl-1,2,3,14-tetrahydro-7H-benzo[b]chromeno[6,5-g][1,8]naphthyridin-7-one] | – | – |
| 278 °C | Cn1c2nc3ccccc3cc2c(=O)c2c(O)cc3c(c21)C=CC(C)(C)O3 [Example 1, 6-Hydroxy-3,3,14-trimethyl-3,14-dihydro-7H-benzo-[b]chromeno-[6,5-g][1,8]naphthyridin-7-one] | – | – |
| 270 °C | COc1cc2c(c3c1c(=O)c1cc4ccccc4nc1n3C)C=CC(C)(C)O2 [Example 2, 6-Methoxy-3,3,14-trimethyl-3,14-dihydro-7H-benzo[b]chromeno-[6,5-g][1,8]naphthyridin-7-one] | – | – |
